Source: PMC6964137 (The Oncologist, 2019)
Like-named read-outs stand apart in the source and are kept apart here.

How the values were obtained:
[1] = system: NRAS- and BRAF-mutant melanoma; details: single agent, cited from earlier work
[2] = cited from earlier work
[3] = Plasma pharmacokinetics, Cycle 1; assay type: in vivo, patients
[4] = cited from earlier work; remark: listed apart in the source
ovarian cancer = details: single agent, irrespective of BRAF or KRAS status; cited from earlier work

In the case of `Cn1cnc2c(F)c(Nc3ccc(Br)cc3F)c(C(=O)NOCCO)cc21` [binimetinib], the Objective response rate ([1]; BRAF-mutant melanoma) is listed as 6%, the Objective response rate ([1]; NRAS-mutant melanoma) is listed as 11% and the “MTD, single agent” value [2] is listed as 60 mg b.i.d. The “mean AUCtau” value ([2]; single-agent phase I study, same dosing schedule) was 1,740 ng•hour/mL, the AUC ([3]; human, plasma, oral, mean AUCtau, binimetinib 45 mg b.i.d. and buparlisib 80 mg q.d.) was 2670 ng·h/mL and the “Effect of buparlisib on PK of binimetinib” value ([3]; in vivo) was “not altered by buparlisib”.

In the case of `Nc1cc(C(F)(F)F)c(-c2cc(N3CCOCC3)nc(N3CCOCC3)n2)cn1` [buparlisib], the “MTD, single agent” value [4] is listed as 100 mg once daily (q.d.), the AUCtau ([4]; single-agent study) is listed as 15,413 ng•hour/mL and the Cmax ([4]; single-agent study) is listed as 1,098 ng/mL. The AUC ([3]; human, plasma, oral, AUCtau, present study, combination at RP2D) was 11700 ng·h/mL, the Cmax ([3]; human, plasma, oral, Cmax, present study, combination at RP2D) was 764 ng/mL and the “Reduction of Cmax and AUCtau when combined with binimetinib” value ([3]; in many patients, versus single-agent data) was greater than 50%.

In the case of `Cn1cnc2c(F)c(Nc3ccc(Br)cc3Cl)c(C(=O)NOCCO)cc21` [selumetinib], the Response rate (ovarian cancer) is listed as 15%.
